The subject of series [1] is human NBMM cells. The series can be described thus: WST cytotoxic assay on normal bone marrow mononuclear cells. The class given is cell-based. To be noted: concentration of 1-2 μM. The method, then:
FIGS. 2a-2i are graphs showing the cytotoxicity of various Rhein analogues. Acute lymphoblastic leukemia (ALL) cell lines EU-1 (p53 normal) and EU-8 (p53 null) as well as normal human BM stroma cells were incubated with different concentrations of Rhein analogues as indicated for 24 h. Viability of cells was detected by Water soluble Tetrazolium (WST) dye assay. Data represent the mean percentage ±SD of the surviving cells (as compared to untreated controls) from three independent experiments.
The cytotoxic and inhibitory effects of the compounds described herein on normal human BM cells in vitro, as compared with doxorubicin was evaluated.

The subject of series [2] is mice. In words: Toxicity in mice. The series is classed as in vivo. To be noted: single injection at a dose of 15/kg. How it is done: FIG. 6 is a table showing the estimated treatment doses and maximum tolerated dose (MTD) of MG1 in mice as compared with doxorubicin.
Toxicity was also evaluated in mice. […] Subsequently, a single injection of MG1 at a dose of 400 mg/kg was administered via injection.
[…]. Toxicity was also evaluated in mice. […] Subsequently, a single injection of MG1 at a dose of 400 mg/kg was administered via injection.

Series [3] relates to MOLT4. The series can be described thus: MTT cytotoxicity evaluation of series 1 and 2 rhein analogues, MOLT4 (Tables 3, 4). To be noted: Homo sapiens, MOLT-4, read-out: IC50 (μM) against MOLT4.
Series [4] concerns DNA damage. In words: Comet images, mechanism of cancer cell death. The class given is cell-based.
Series [5] relates to HeLa. The series can be described thus: MTT cytotoxicity assay, HeLa (Table 2). To be noted: for IC50 / IC50 (μM) against HeLa: Table 2; for cytotoxicity against HeLa cells compared to rhein: in words. The method, then: (§1) The in vitro cytotoxicity studies of the synthesized compounds were performed in three different cell lines (HeLa, Hek, and KB). The activities of the herein described analogues were compared to that of rhein itself and doxorubicin. Due to the poor solubility of the compounds, all of the solutions used for biological testing were prepared using DMSO as solvent.
A general note: Formazan colour is commonly taken as a measure of viable cells.

The subject of series [6] is HeLa. In words: MTT cytotoxicity evaluation of series 1 and 2 rhein analogues, HeLa (Tables 3, 4). The series is classed as cell-based. To be noted: Homo sapiens, HeLa; MTT; Tables 3 and 4; read-out: IC50 (μM) against HeLa.
For series [7], the system named is KB. In words: MTT cytotoxicity assay, KB (Table 2). The series is classed as cell-based. To be noted: 48 h incubation; for IC50: read-out: IC50 (μM) against KB. The method, then:
as §1

In series [8] the test system is Hek. In words: MTT cytotoxicity assay, Hek (Table 2). To be noted: for IC50: read-out: IC50 (μM) against Hek. The class given is cell-based. How it is done: as §1
Where [9] appears, read: Homo sapiens, HeLa, 48 h, read-out: IC50 (μM) against HeLa, MTT, 48 h incubation.
Setting [10] is: read-out: IC50 (μM) against HeLa, MTT, 48 h incubation.
[11] abbreviates: Homo sapiens, HEK293, 48 h incubation.

The structures appear in SMILES notation. Where two headings read alike, the source gives them in different places.

With `COc1cccc2c1C(=O)c1c(O)c3c(c(O)c1C2=O)C[C@@](O)(C(=O)CO)C[C@@H]3O[C@H]1C[C@H](N)[C@H](O)[C@H](C)O1` [Doxorubicin, reference compound], the “human NBMM cells survived after treatment” value in series [1] is on record as 40-50%. The death of mice result in series [2] is reported as “death of all mice at day 7 due to cardiac toxicity”. Besides, the IC50 (in general, the point on the concentration scale where inhibition reaches its midpoint) in series [3] came to 0.04 µM; in series [5] (setting [9]), 1.4 µM; in series [5] (setting [10]) it was 1.5 µM; in series [6], 0.98 µM; in series [7] (Homo sapiens, KB), 0.4 µM; in series [8] (setting [11]) it was 0.15 µM. In series [4], the “mechanism of cancer cell death (DNA damage)” value is “induces cancer cell death through DNA damage”.

For the molecule `O=C(CI)Nc1cc(O)c2c(c1)C(=O)c1cccc(O)c1C2=O` [Compound 7, 1,8-Dihydroxy-3-(2′-iodo-acetamido)-anthraquinone], the IC50 was determined as 10 µM in series [3]; 10 µM in series [5] (setting [9]); 17 µM in series [6]; 9 µM in series [7] (Homo sapiens, KB, 48 h); 2 µM in series [8] (setting [11]).

Consider `O=C(CCl)Nc1cc(O)c2c(c1)C(=O)c1cccc(O)c1C2=O` [Compound 5, 1,8-Dihydroxy-3-(2′-chloro-acetamido)-anthraquinone], for which the IC50 in series [5] (setting [9]) was 4 µM; in series [7] (Homo sapiens, KB, 48 h), 4.5 µM; in series [8] (setting [11]), 4 µM. The “IC50 (μM) against HeLa” value in series [5] (MTT, 48 h incubation) was “low micro molar”. In addition, the “cytotoxicity against HeLa cells compared to rhein” value in series [5] was “significant improvement”. The “IC50 (μM) against KB” value in series [7] is on record as “low micro molar”. Further, in series [8] (48 h incubation), the “IC50 (μM) against Hek” value was “low micro molar”.

As for `O=C(CCl)NCCCCNC(=O)c1cc(O)c2c(c1)C(=O)c1cccc(O)c1C2=O` [Compound 17, 1,8-Dihydroxy-3-(9′-chloro-aceta-2′,7′diamido)-anthraquinone], the IC50 in series [5] (setting [10]) is 16 µM; in series [7], 19 µM; in series [8] (48 h incubation), 8 µM.

Regarding `O=C(O)c1cc(O)c2c(c1)C(=O)c1cccc(O)c1C2=O` [Rhein, reference compound], the IC50 is 37 µM in series [3]; 100 µM in series [5] (setting [9]); above 100 µM in series [5] (setting [10]); above 100 µM in series [6]; above 100 µM in series [7]; at least 100 µM in series [7] (Homo sapiens, KB, 48 h). Further, in series [8] (setting [11]), the IC50 was above 100 µM.

With `COc1cccc2c1C(=O)c1c(OC)cc(NC(=O)CBr)cc1C2=O` [Compound 13, 1,8-dimethoxy-3-(2′-bromo-acetamido)-anthraquinone], the IC50 in series [5] (setting [9]) worked out at 8 µM; in series [7] (Homo sapiens, KB, 48 h) it was 38 µM; in series [8] (setting [11]), 2.3 µM.

On to `O=C(CCl)NCCCOCCOCCOCCCNC(=O)c1cc(O)c2c(c1)C(=O)c1cccc(O)c1C2=O` [Compound 21, 1,8-Dihydroxy-3-(18′-chloro-aceta-6′,9′,12′-trioxa-2′,16′-tridecanediamido)-anthraquinone], for which the IC50 came to 14 µM in series [5] (setting [10]), 21 µM in series [7] and 8 µM in series [8] (48 h incubation).

With `O=C(CBr)Nc1cc(O)c2c(c1)C(=O)c1cccc(O)c1C2=O` [Compound 6, 1,8-Dihydroxy-3-(2′-bromo-acetamido)-anthraquinone], the IC50 in series [5] (setting [9]) came out at 40 µM; in series [7] (Homo sapiens, KB, 48 h) it was 15 µM; in series [8] (setting [11]), 8 µM. In series [5] (ratio of IC50 values), the “times more potent than rhein against HeLa” value was 2.5 fold.

As to `COc1cccc2c1C(=O)c1c(OC)cc(NC(=O)CI)cc1C2=O` [Compound 14, 1,8-dimethoxy-3-(2′-iodo-acetamido)-anthraquinone], the IC50 was 2.5 µM in series [5] (setting [9]); 10 µM in series [7] (Homo sapiens, KB, 48 h); 1.4 µM in series [8] (setting [11]). In addition, in series [5] (MTT, 48 h incubation), the “IC50 (μM) against HeLa” value is recorded as “low micro molar”. In addition, the “cytotoxicity against HeLa cells compared to rhein” value in series [5] is “significant improvement”. In addition, in series [7], the “IC50 (μM) against KB” value is given as “low micro molar”. In addition, the “IC50 (μM) against Hek” value in series [8] (48 h incubation) is “low micro molar”.

For `O=C(CI)NCCCOCCOCCOCCCNC(=O)c1cc(O)c2c(c1)C(=O)c1cccc(O)c1C2=O` [Compound 23, 1,8-Dihydroxy-3-(18′-iodo-aceta-6′,9′,12′-trioxa-2′,16′-tridecanediamido)-anthraquinone], the IC50 in series [5] (setting [10]) amounted to 5.8 µM; in series [7], 8 µM; in series [8] (48 h incubation) it was 4 µM.

Source of the values: patent US10544090B2, “Anthraquinone analogs and methods of making and using thereof” (Georgia State University Research Foundation, Inc., priority 2012, dated 2020).
